Data as given in ChEMBL document CHEMBL1201862, “PubChem BioAssay data set” (2004).
Where “and” joins values, the source holds several entries; their conditions need not be identical. Identical values can stand only once. Counter-ions that a name gives are not always drawn. Calls of active or inactive are those of the source.

Key:
[1] = molecular target: Glutathione-S-transferase (Schistosoma japonicum, UniProt Q26513); assay: biotin-GST/anti-GST TR-FRET signal inhibitors, dose response, artefact control for Vif-APOBEC3G degradation inhibitor project, biochemical (AID 1117362); type: functional
[2] = molecular target: Eukaryotic translation initiation factor 4E (Mus musculus, UniProt P63073); assay: eIF4E–eIF4G protein interaction inhibitors, dose response, biochemical, TR-FRET (AID 855); type: functional;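 also: potency for disrupting eIF4E binding to eIF4GI seen as loss of FRET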
[3] = molecular target: T1, Voltage-gated N-type calcium channel alpha-1B subunit/Amyloid beta A4 precursor protein-binding family A member 1 (Homo sapiens, UniProt Q00975+Q02410); type: protein assay
T1 sequence (Q00975 whole entry): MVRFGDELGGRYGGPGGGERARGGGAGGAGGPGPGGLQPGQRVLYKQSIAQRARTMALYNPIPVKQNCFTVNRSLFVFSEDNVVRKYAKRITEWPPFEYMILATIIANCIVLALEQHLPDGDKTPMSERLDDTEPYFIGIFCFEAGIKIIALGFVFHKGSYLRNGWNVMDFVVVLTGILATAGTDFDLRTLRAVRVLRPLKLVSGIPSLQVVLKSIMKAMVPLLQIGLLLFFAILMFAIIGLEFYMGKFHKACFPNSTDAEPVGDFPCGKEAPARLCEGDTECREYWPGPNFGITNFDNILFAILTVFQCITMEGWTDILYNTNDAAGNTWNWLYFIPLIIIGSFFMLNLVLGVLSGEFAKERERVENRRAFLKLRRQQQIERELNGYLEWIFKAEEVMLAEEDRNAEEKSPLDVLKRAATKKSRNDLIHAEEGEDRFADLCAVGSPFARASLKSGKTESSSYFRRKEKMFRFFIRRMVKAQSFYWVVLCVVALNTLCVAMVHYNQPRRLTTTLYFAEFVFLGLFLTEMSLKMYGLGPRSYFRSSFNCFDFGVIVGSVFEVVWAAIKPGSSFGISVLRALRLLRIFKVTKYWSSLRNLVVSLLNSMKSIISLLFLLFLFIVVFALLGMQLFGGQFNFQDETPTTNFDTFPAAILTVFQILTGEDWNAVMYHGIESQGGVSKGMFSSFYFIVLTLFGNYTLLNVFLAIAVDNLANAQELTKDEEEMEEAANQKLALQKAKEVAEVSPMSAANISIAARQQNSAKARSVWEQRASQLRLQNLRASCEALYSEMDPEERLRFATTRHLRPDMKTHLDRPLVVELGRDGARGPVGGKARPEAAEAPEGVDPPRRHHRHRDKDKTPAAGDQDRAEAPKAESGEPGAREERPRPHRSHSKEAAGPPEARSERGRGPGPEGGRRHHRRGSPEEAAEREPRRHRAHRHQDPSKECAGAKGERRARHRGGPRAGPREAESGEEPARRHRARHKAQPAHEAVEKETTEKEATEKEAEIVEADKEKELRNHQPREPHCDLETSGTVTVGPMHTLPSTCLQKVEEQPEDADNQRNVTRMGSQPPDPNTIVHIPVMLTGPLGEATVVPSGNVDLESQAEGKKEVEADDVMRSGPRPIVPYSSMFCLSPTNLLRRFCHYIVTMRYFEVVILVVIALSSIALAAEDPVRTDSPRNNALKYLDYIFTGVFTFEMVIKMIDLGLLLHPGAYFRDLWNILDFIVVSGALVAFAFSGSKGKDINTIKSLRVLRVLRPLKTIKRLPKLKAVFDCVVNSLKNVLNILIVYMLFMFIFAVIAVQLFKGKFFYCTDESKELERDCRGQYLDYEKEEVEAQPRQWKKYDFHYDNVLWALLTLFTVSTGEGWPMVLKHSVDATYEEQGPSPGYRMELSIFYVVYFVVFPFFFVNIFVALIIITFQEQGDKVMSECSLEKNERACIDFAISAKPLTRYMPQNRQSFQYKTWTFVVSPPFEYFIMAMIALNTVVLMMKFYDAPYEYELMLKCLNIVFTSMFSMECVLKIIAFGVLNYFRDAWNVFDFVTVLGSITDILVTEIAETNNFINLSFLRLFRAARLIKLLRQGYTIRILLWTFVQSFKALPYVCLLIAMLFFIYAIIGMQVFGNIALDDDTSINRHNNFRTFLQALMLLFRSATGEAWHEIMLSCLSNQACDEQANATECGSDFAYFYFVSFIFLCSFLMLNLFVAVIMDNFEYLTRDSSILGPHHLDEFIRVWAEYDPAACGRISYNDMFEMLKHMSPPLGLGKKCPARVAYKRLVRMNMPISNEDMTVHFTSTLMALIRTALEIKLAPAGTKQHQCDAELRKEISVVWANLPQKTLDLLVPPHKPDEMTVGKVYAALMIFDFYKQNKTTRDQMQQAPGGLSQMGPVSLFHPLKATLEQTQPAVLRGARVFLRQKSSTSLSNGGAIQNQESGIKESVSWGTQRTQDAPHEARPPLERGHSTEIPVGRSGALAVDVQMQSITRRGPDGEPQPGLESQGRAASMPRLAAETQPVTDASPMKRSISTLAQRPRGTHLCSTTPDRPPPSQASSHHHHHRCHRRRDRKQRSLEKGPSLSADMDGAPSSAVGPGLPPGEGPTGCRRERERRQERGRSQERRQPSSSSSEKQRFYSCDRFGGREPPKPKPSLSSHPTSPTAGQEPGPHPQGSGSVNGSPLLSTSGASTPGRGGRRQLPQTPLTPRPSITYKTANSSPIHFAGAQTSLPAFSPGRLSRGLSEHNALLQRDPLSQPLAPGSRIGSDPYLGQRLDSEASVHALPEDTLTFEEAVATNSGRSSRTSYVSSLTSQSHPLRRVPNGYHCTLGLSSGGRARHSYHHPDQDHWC
T1 sequence (Q02410 whole entry): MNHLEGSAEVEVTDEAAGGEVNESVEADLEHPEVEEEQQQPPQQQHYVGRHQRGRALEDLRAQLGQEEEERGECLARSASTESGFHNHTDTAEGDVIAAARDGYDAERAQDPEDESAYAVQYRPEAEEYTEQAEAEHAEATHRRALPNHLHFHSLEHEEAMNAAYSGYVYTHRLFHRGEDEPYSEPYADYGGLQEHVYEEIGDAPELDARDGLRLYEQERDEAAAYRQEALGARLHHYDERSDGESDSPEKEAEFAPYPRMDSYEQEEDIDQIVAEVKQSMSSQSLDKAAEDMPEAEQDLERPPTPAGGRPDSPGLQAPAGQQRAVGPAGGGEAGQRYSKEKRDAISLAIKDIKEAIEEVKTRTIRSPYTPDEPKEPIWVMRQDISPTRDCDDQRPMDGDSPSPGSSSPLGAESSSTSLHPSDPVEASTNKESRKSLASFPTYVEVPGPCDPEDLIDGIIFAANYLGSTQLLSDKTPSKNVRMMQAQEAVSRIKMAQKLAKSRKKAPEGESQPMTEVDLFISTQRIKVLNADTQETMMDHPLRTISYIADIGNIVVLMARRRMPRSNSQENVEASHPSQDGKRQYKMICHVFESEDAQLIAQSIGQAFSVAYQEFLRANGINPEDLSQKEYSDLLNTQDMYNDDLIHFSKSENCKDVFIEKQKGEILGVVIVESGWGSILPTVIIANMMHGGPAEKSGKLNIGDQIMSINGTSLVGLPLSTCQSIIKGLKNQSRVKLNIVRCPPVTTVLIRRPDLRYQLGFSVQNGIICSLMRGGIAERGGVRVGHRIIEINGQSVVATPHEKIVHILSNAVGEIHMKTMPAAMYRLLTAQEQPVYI

[4] = molecular target: T1, Voltage-gated N-type calcium channel alpha-1B subunit/Amyloid beta A4 precursor protein-binding family A member 1; type: protein assay; remark: listed apart in the source
[5] = molecular target: T2, Tyrosine-protein phosphatase non-receptor type 7 (Homo sapiens, UniProt P35236); assay: redox-dependent HePTP inhibition, mechanism study, biochemical, fluorescence (AID 2068); type: functional
T2 sequence (P35236 whole entry): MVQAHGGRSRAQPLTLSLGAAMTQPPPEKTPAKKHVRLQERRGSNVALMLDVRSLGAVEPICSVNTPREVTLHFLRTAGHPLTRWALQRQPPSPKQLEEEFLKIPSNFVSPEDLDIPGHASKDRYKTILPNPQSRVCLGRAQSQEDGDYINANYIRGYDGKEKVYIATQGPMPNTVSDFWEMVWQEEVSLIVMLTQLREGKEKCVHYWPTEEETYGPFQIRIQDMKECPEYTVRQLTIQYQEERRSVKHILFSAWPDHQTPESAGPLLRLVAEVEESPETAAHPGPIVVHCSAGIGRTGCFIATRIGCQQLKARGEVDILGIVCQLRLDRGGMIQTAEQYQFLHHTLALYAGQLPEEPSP

[6] = molecular target: T3, Short transient receptor potential channel 4 (Mus musculus, UniProt Q9QUQ5); assay: TRPC4 positive allosteric modulators, dose response, cell-based, HEK293 TRPC4/mu-opioid, Fluo-4 calcium, EC20 DAMGO (AID 434941); type: functional
T3 sequence (Q9QUQ5 whole entry): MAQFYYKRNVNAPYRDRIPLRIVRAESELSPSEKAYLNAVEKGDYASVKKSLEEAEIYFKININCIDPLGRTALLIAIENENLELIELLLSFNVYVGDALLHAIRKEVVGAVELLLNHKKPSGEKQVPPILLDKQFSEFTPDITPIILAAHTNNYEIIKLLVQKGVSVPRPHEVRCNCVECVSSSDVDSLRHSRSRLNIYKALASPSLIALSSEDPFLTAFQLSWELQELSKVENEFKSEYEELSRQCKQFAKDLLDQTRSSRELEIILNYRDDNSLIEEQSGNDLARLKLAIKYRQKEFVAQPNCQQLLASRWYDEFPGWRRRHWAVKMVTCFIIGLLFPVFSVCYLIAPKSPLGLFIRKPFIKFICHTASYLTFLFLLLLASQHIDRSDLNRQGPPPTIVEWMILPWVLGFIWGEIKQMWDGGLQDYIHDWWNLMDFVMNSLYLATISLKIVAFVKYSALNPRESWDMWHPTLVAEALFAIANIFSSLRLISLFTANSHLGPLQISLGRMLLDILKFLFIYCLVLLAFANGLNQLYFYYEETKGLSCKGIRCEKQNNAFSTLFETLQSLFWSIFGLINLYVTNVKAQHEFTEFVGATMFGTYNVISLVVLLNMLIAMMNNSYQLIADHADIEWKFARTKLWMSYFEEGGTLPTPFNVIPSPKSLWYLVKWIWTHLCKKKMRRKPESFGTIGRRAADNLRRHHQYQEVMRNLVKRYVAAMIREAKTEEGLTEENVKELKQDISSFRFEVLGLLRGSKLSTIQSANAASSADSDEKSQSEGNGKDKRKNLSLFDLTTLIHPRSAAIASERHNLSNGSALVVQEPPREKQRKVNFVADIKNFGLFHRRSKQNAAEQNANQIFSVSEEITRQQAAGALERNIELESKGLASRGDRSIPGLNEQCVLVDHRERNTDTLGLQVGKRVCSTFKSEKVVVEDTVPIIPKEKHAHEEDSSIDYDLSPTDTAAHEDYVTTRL

[7] = Luminescence Cell-Based/Microorganism Confirmation at Dose of Inhibitors of Trypanosoma cruzi Infection. [Related pubchem assays: 1885, 1968 ]; type: functional
[8] = cytotoxicity in NIH/3T3 mouse fibroblasts, dose response, cytotoxicity control, cell-based, mouse embryonic fibroblasts, dry powder, set 2 (AID 493247); type: functional; conditions: Fibroblast
Trypanosoma cruzi = assay: growth inhibition of intracellular Trypanosoma cruzi, dose response, cell-based, plate reader, dry powder, set 3 (AID 493197); type: functional
[9] = Luminescence Cell-Based Secondary HTS screen to identify cytotoxic compounds of NIH3T3 cells. [Related pubchem assays: 1885, 1968 ]; type: functional
Phosphomannomutase 2 = molecular target: T4, Phosphomannomutase 2 (Homo sapiens, UniProt O15305); assay: Counter screen SAR assay for PMM2 inhibitors via a fluorescence intensity assay. [Related pubchem assays (depositor defined):AID1545, AID1574]
T4 sequence (O15305 whole entry): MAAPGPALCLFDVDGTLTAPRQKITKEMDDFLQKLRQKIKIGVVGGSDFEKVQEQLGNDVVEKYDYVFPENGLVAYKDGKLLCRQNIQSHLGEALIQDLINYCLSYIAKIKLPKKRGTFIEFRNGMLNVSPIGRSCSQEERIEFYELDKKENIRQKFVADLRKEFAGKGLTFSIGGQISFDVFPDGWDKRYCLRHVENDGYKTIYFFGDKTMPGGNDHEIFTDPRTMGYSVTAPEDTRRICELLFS

Hexokinase = Hexokinase (Trypanosoma brucei, UniProt Q38C41); assay: Confirmation assay for inhibitors of Trypanosoma brucei hexokinase 1-Analogue-first series. [Related pubchem assays (depositor defined):AID1430, AID1632, AID2516, AID2560, AID2579, AID2600, AID449725, AID492951]; type: functional
[10] = molecular target: T5, Mannose-6-phosphate isomerase (Homo sapiens, UniProt P34949); assay: PMI enzyme inhibitors, confirmation, biochemical, fluorescence intensity (AID 1535)
T5 sequence (P34949 whole entry): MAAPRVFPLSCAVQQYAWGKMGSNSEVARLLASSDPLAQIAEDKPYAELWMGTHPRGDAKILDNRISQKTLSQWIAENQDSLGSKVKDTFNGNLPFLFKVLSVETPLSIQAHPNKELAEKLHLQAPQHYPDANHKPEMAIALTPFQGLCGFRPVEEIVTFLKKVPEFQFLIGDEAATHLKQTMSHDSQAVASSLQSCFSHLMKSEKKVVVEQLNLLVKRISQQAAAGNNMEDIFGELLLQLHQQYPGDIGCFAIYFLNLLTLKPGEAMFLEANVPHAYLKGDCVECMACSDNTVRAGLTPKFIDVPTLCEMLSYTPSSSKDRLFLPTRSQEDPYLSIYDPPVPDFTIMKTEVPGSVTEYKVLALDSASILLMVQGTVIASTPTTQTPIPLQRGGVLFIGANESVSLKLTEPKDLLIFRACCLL

[11] = molecular target: Delta-type opioid receptor (Homo sapiens, UniProt P41143); assay: SAR Analysis of Antagonists of the DOR Receptor using an Image-Based Assay - Set 3. [Related pubchem assays (depositor defined):AID1777, AID1785]; type: functional;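 also: U2OS cells expressing DOR1 and beta-arrestin GFP stimulated with 100 nM SNC80; imaging of GFP-tagged beta-arrestin moving into spots after receptor activation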
[12] = molecular target: T6, Kappa-type opioid receptor (Homo sapiens, UniProt P41145); assay: SAR analysis of small molecule antagonists of the kappa opioid receptor via a luminescent beta-arrestin assay - Set 3. [Related pubchem assays (depositor defined):AID1777, AID1778, AID1785, AID1786, AID1966, AID2133, AID2136, AID2285, AID2495]; type: functional
T6 sequence (P41145 whole entry): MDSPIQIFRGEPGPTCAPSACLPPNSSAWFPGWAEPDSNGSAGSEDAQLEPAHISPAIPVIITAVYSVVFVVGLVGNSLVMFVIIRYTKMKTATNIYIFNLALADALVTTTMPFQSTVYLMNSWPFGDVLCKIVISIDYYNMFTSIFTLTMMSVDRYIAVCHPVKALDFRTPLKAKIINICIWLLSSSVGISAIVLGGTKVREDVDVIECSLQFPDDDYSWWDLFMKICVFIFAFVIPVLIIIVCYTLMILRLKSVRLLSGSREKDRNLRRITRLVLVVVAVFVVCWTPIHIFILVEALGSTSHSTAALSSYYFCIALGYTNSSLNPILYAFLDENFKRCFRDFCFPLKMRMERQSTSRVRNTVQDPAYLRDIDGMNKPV

Mu-type opioid receptor = Mu-type opioid receptor (Homo sapiens, UniProt P35372); assay: SAR Analysis of Antagonists of the MOR Receptor using an Image-Based Assay - Set 3. [Related pubchem assays (depositor defined):AID1777, AID1785, AID1786, AID1966, AID2133, AID2136, AID2284, AID2285, AID2420]; type: functional
[13] = molecular target: T6, Kappa-type opioid receptor; assay: SAR analysis of Antagonists of the Kappa Opioid Receptor (KOR) using an Image-Based Assay - Set 3. [Related pubchem assays (depositor defined):AID1777, AID1785]; type: functional
[14] = C. albicans growth with fluconazole, confirmation, fluorescence, retest (AID 2467); type: functional, cell-based
[15] = NIH-3T3 fibroblast cytotoxicity, dose response, cytotoxicity control, cell-based, fluorescence, Alamar Blue, secondary assay (AID 2327); type: functional;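 also: NIH-3T3 mouse fibroblasts cultured with fluconazole at 8 µg/mL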
[16] = molecular target: T7, Alkaline phosphatase, tissue-nonspecific isozyme (Homo sapiens, UniProt P05186); assay: TNAP enzyme activators, dose response, selectivity assay for human IAP activator project, biochemical, TNAP isozyme, human IAP uHTS hits (AID 488886); type: functional;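 also: potency of compounds raising TNAP activity as a selectivity check on IAP activators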
T7 sequence (P05186 whole entry): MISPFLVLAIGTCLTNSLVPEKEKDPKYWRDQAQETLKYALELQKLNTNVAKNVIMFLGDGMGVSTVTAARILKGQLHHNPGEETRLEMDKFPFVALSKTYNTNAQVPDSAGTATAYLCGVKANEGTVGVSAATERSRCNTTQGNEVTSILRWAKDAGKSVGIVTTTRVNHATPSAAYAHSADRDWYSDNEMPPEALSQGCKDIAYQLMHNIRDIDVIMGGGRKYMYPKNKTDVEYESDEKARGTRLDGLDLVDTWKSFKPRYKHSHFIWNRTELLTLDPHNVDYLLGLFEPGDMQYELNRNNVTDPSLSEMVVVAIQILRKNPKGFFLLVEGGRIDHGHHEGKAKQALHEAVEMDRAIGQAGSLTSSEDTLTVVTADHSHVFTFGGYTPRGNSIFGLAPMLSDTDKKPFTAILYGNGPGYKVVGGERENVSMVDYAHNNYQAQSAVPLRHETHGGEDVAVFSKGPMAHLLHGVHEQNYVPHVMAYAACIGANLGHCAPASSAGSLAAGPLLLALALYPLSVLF

[17] = molecular target: Intestinal-type alkaline phosphatase (Mus musculus, UniProt P24822); assay: PubChem AID 488875; type: functional
SUMO-activating enzyme [18] = molecular target: T8, SUMO-activating enzyme (Homo sapiens, UniProt Q9UBT2); assay: inhibitors of in vitro SUMOylation cascade, primary screen, biochemical, HTRF, uHTS (AID 2006); type: protein-complex assay
T8 sequence (Q9UBE0 whole entry): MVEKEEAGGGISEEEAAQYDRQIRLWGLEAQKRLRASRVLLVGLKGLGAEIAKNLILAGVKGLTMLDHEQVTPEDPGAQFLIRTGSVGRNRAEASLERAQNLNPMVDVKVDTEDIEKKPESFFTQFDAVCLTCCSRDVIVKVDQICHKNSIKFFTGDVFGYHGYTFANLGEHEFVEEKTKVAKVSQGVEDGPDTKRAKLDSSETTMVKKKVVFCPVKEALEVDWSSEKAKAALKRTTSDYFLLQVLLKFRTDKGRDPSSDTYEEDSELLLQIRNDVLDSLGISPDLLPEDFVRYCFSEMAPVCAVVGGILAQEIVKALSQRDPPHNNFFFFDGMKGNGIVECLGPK
T8 sequence (Q9UBT2 whole entry): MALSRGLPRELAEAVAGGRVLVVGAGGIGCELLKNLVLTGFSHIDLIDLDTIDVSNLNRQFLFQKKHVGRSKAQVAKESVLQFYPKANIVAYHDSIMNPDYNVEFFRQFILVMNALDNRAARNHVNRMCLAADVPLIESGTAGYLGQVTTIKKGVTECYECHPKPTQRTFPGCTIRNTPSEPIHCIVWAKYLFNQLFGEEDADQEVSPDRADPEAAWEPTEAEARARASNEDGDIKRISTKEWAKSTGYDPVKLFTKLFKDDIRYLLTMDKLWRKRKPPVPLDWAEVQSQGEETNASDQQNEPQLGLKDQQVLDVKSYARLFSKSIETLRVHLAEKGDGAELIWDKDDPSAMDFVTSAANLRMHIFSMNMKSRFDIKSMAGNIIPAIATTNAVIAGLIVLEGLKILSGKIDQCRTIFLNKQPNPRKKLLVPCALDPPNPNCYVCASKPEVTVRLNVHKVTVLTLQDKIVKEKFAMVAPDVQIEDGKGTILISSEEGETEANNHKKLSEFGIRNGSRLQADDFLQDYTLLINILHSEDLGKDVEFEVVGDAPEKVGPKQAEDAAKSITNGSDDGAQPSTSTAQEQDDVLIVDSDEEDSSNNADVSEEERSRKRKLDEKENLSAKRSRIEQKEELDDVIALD

[19] = molecular target: T9, Intestinal-type alkaline phosphatase (Homo sapiens, UniProt P09923); assay: human IAP activators, dose response, biochemical, luminescent, uHTS hits, set 2 (AID 488817); type: functional;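 also: potency of activators that raise enzyme activity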
T9 sequence (P09923 whole entry): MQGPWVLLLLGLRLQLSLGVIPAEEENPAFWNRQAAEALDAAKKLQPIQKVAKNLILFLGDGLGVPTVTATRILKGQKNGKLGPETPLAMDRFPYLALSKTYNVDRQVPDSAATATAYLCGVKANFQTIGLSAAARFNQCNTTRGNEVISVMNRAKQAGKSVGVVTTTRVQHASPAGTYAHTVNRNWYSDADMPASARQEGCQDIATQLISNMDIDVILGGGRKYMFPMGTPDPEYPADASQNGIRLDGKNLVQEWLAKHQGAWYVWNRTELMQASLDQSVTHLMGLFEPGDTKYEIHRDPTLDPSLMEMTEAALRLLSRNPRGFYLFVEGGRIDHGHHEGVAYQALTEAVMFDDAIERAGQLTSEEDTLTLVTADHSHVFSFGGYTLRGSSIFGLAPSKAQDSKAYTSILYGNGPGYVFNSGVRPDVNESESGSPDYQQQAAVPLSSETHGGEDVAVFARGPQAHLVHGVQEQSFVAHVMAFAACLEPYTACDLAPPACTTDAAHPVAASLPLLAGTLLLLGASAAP

[20] = molecular target: T9, Intestinal-type alkaline phosphatase; assay: human intestinal alkaline phosphatase activators, dose response, biochemical, luminescence, uHTS hits (AID 463120); type: functional
SUMO-activating enzyme [21] = molecular target: T8, SUMO-activating enzyme; assay: SUMOylation inhibitor hit validation, confirmation, SUMOylation inhibitor project, biochemical, AlphaScreen (AID 2018); type: functional
[22] = molecular target: G-protein coupled receptor 55 (Homo sapiens, UniProt Q9Y2T6); assay: GPR55 antagonists blocking LPI-driven arrestin recruitment, primary screen, imaging, U2OS, beta-arrestin-GFP, LPI agonist (AID 2013); type: functional;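 also: antagonist potency measured as reduced agonist-driven arrestin aggregation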

In the case of `O=C(NCCCO)Nc1ccc2nc(-c3ccco3)c(-c3ccco3)nc2c1`, the IC50 [1] was > 100 µM (active), the IC50 [2] was 9.25 µM (active) and the IC50 [3] was 20 µM (active). The IC50 [4] was 0.507 µM (active) and the IC50 [5] was 841 nM (active) and 537 nM (active).
For `CCOc1ccc(-n2c(SCC(=O)O)nc3sc4c(c3c2=O)CCCC4)cc1`, the EC50 [6] was 5.96 µM (active).
For `CN(Cc1ccccc1)C(=O)C1CCCN(Cc2cccc(Cl)c2)C1` (stereo unspecified), the EC50 [7] was 0.231 µM (active), the AC50 [8] was 70.3 µM (active) and the AC50 (Trypanosoma cruzi) was 0.57 µM (active). For the same compound, the EC50 [9] was > 195 µM (not active).
In the case of `COc1cccc(-n2sc3ccccc3c2=O)c1`, the IC50 (Phosphomannomutase 2) was 14.3 µM (active), the IC50 (Hexokinase) was 2.52 µM (active) and the IC50 [10] was 4.19 µM (active).
With `CCN(CCNC(=O)c1ccc(CNS(=O)(=O)c2ccc(C)cc2)cc1)Cc1ccccc1` the IC50 [11] was > 32 µM (inactive), the IC50 [12] was 5.57 µM (active) and the IC50 (Mu-type opioid receptor) was 10.3 µM (inactive). For the same compound, the IC50 [13] was 2.93 µM (active).
In the case of `COc1cccc(/C=N\NC(=O)C2=NNC(=O)C2C)c1O` (stereo unspecified), the EC50 [14] was > 38 µM (not active), the EC50 [15] was > 160 µM (inconclusive) and the EC50 [16] was 8.88 µM (active). The EC50 [17] was > 100 µM (inactive), the IC50 (SUMO-activating enzyme [18]) was 18.3 µM (active) and the EC50 [19] was 9.07 µM (active). The EC50 [20] was 6.53 µM (active) and the IC50 (SUMO-activating enzyme [21]) was 5.18 µM (active).
For `CC(NCCC(c1ccccc1)c1ccccc1)c1ccccc1` (stereo unspecified) [FENDILINE HYDROCHLORIDE], the IC50 [22] was 3.1 µM (active).
